Results from PubChem BioAssay AID248 (DTP/NCI, 2004).
Several values for one entry are separate records, joined by “and”; a condition that tells them apart may be missing. Identical values can stand only once. Toxic doses and inconclusive results are not listed.

System: L1210 leukemia ip in BDF1 mice, survival T/C
Assay: NCI In Vivo Anticancer Drug Screen. Data for tumor model L1210 Leukemia (intraperitoneal) in B6D2F1 (BDF1) mice
Settings: endpoint: mean survival time, higher = longer survival
Procedure, shortened: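 Value reflects the ratio of survival in compound-treated mice to survival in vehicle-treated controls, with both groups carrying the same transplanted tumor.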

[1] = dose: 100.0 mg/kg/injection, schedule: Q01DX009 (ip), vehicle: Klucel (hydroxypropylcellulose) (HPC)
[2] = dose: 100.0 mg/kg/injection, schedule: Q04DX003 (ip), vehicle: saline with Tween-80
[3] = dose: 200.0 mg/kg/injection, schedule: Q01DX009 (ip), vehicle: Klucel (hydroxypropylcellulose) (HPC)
[4] = dose: 200.0 mg/kg/injection, schedule: Q04DX003 (ip), vehicle: saline with Tween-80
[5] = dose: 400.0 mg/kg/injection, schedule: Q04DX003 (ip), vehicle: saline with Tween-80
[6] = dose: 100.0 mg/kg/injection, schedule: Q01DX009 (ip), vehicle: saline with Tween-80
[7] = dose: 100.0 mg/kg/injection, schedule: Q04DX002 (ip), vehicle: saline with Tween-80
[8] = dose: 200.0 mg/kg/injection, schedule: Q01DX009 (ip), vehicle: saline with Tween-80
[9] = dose: 200.0 mg/kg/injection, schedule: Q04DX002 (ip), vehicle: saline with Tween-80
[10] = dose: 100.0 mg/kg/injection, schedule: Q01DX001 (ip), vehicle: saline
[11] = dose: 200.0 mg/kg/injection, schedule: Q01DX001 (ip), vehicle: saline
[12] = dose: 400.0 mg/kg/injection, schedule: Q01DX001 (ip), vehicle: saline

For `CN(CCc1ccccc1)/N=N/c1nc[nH]c1C(N)=O`, the T/C (dose: 100.0 mg/kg/injection, schedule: Q01DX001 (ip), vehicle: saline with Tween-80) was 96 % of control, the T/C [1] was 102 % of control and the T/C [2] was 110 % of control. For the same molecule, the T/C (dose: 118.0 mg/kg/injection, schedule: Q04DX003 (ip), vehicle: saline with Tween-80) was 101 % of control, the T/C (dose: 150.0 mg/kg/injection, schedule: Q01DX009 (ip), vehicle: saline with Tween-80) was 155 % of control and the T/C (dose: 177.0 mg/kg/injection, schedule: Q04DX003 (ip), vehicle: saline with Tween-80) was 115 % of control. The T/C (dose: 200.0 mg/kg/injection, schedule: Q01DX001 (ip), vehicle: saline with Tween-80) was 104 % of control, the T/C [3] was 103 % of control and the T/C [4] was 112 % of control. For the same molecule, the T/C (dose: 300.0 mg/kg/injection, schedule: Q01DX009 (ip), vehicle: saline with Tween-80) was 163 % of control, the T/C (dose: 400.0 mg/kg/injection, schedule: Q01DX001 (ip), vehicle: saline with Tween-80) was 118 % of control and the T/C (dose: 400.0 mg/kg/injection, schedule: Q01DX009 (ip), vehicle: Klucel (hydroxypropylcellulose) (HPC)) was 113 % of control. The T/C [5] was 150 % of control and the T/C (dose: 600.0 mg/kg/injection, schedule: Q04DX003 (ip), vehicle: saline with Tween-80) was 179 % of control.
For `[Cl][Nd]([Cl])[Cl]`, the T/C (dose: 12.5 mg/kg/injection, schedule: Q01DX009 (ip), vehicle: saline) was 98 % of control, the T/C (dose: 25.0 mg/kg/injection, schedule: Q01DX009 (ip), vehicle: saline) was 87 % of control and the T/C (dose: 50.0 mg/kg/injection, schedule: Q01DX009 (ip), vehicle: saline) was 93 % of control and 91 % of control. The T/C (dose: 100.0 mg/kg/injection, schedule: Q04DX003 (ip), vehicle: saline) was 100 % of control, the T/C (dose: 200.0 mg/kg/injection, schedule: Q01DX009 (ip), vehicle: saline) was 86 % of control and the T/C (dose: 200.0 mg/kg/injection, schedule: Q04DX003 (ip), vehicle: saline) was 100 % of control.
In the case of `CC(C)(C)SCC#CCSC(C)(C)C`, the T/C (dose: 50.0 mg/kg/injection, schedule: Q01DX009 (ip), vehicle: saline with Tween-80) is reported as 100 % of control, the T/C [6] is reported as 118 % of control and the T/C [7] is reported as 103 % of control. The T/C [8] was 96 % of control and the T/C [9] was 100 % of control.
In the case of `CC(=O)OCC1OC(Oc2ccccc2)C(OC(C)=O)C(OC(C)=O)C(OC(C)=O)C1OC(C)=O` (configuration not stated), the T/C (dose: 50.0 mg/kg/injection, schedule: Q01DX009 (ip), vehicle: Klucel (hydroxypropylcellulose) (HPC)) is reported as 104 % of control, the T/C [1] is reported as 96 % of control and the T/C [3] is reported as 96 % of control.
In the case of `Cc1nccn1-c1ccccc1N=Cc1ccc(N(CCCl)CCCl)cc1Cl`, the T/C (dose: 100.0 mg/kg/injection, schedule: Q04DX002 (ip), vehicle: saline) is reported as 102 % of control, the T/C (dose: 200.0 mg/kg/injection, schedule: Q04DX002 (ip), vehicle: saline) is reported as 102 % of control and the T/C (dose: 400.0 mg/kg/injection, schedule: Q04DX002 (ip), vehicle: saline) is reported as 98 % of control.
For `OCC1OC(n2c(Cl)nc3ccccc32)C(O)C1O` (configuration not stated), the T/C [10] was 97 % of control, the T/C [11] was 103 % of control and the T/C [12] was 103 % of control.
`C=CCSc1n[nH]c(=O)[nH]c1=O` was tested, and the T/C [10] was 111 % of control, the T/C [11] was 92 % of control and the T/C [12] was 103 % of control.
For `O=C1OCCN1c1ccc(S(=O)(=O)c2ccc(N3CCOC3=O)cc2)cc1`, the T/C [6] was 98 % of control, the T/C [2] was 102 % of control and the T/C [8] was 93 % of control. For the same molecule, the T/C [4] was 102 % of control, the T/C (dose: 400.0 mg/kg/injection, schedule: Q01DX009 (ip), vehicle: saline with Tween-80) was 95 % of control and the T/C [5] was 96 % of control.
In the case of `CO/C(C)=C(/C#N)C(N)=S`, the T/C [7] is reported as 93 % of control, the T/C [9] is reported as 97 % of control and the T/C (dose: 400.0 mg/kg/injection, schedule: Q04DX002 (ip), vehicle: saline with Tween-80) is reported as 101 % of control.
For `CCCCCCCCCCCCCCCC(=O)NCC(C)NC(=O)CCCCCCCCCCCCCCC` (configuration not stated), the T/C (dose: 75.0 mg/kg/injection, schedule: Q01DX001 (ip), vehicle: saline) was 95 % of control, the T/C (dose: 150.0 mg/kg/injection, schedule: Q01DX001 (ip), vehicle: saline) was 96 % of control and the T/C (dose: 300.0 mg/kg/injection, schedule: Q01DX001 (ip), vehicle: saline) was 103 % of control.
`CCCCCCCCCC[n+]1cccc(C(N)=O)c1` was tested, and the T/C (dose: 5.0 mg/kg/injection, schedule: Q04DX003 (ip), vehicle: saline) was 93 % of control, the T/C (dose: 10.0 mg/kg/injection, schedule: Q04DX003 (ip), vehicle: saline) was 96 % of control and the T/C (dose: 20.0 mg/kg/injection, schedule: Q04DX003 (ip), vehicle: saline) was 96 % of control.
